Test results from paper PMC4965013, “Open Source Drug Discovery with the Malaria Box Compound Collection for Neglected Diseases and Beyond” (PLoS Pathogens, 2016).

Tests used:
[1] = test system: P. falciparum 3D7 trophozoites; experiment: Metabolomic fingerprint profiling LC-MS; format: cell-based, Plasmodium falciparum; design: UDP-D-glucose / ADP-D-glucose: unit not given here; settings: for Acetyllysine / N-acetyl-L-ornithine / N-carbamoyl-L-aspartate / NADPH / dAMP / dCMP / dTDP / dTMP / dTTP / dihydroorotate / orotate / DLH / DLS/SDL/SID / PD / PEE / PVNF / 3-phosphoglycerate / ADP-D-glucose / ATP / CDP / D-sedoheptulose-1/7-phosphate / FAD / GMP / NAD+ / NADP+ / Octoluse Bisphosphate / Pyroglutamic acid / UDP-D-glucose / UDP-D-glucuronate / UDP-N-acetyl-glucosamine / UDP / UMP / UTP / a-ketoglutarate / citrate/isocitrate / cytidine / dATP / dGMP/AMP / fumarate / glucose-1/6-phosphate / glycerate / guanine / guanosine / hypoxanthine / indole / inosine / nicotinate / ornithine / phosphoenolpyruvate / pyruvate / ribose-phosphate / sarcosine/alanine / sn-glycerol-3-phosphate / succinate/methylmalonic acid / uridine / xanthosine: S2 Table Metabolomics; for Acetyllysine: metabolite Acetyllysine; for N-acetyl-L-ornithine: metabolite N-acetyl-L-ornithine; for N-carbamoyl-L-aspartate: metabolite N-carbamoyl-L-aspartate; for NADPH: metabolite NADPH; for dAMP: metabolite dAMP; for dCMP: metabolite dCMP; for dTDP: metabolite dTDP; for dTMP: metabolite dTMP; for dTTP: metabolite dTTP; for dihydroorotate: metabolite dihydroorotate; for orotate: metabolite orotate; for DLH: peptide DLH; for DLS/SDL/SID: peptide DLS/SDL/SID; for PD: peptide PD; for PEE: peptide PEE; for PVNF: peptide PVNF; for 3-phosphoglycerate: metabolite 3-phosphoglycerate; for ADP-D-glucose: metabolite ADP-D-glucose; for ATP: metabolite ATP; for CDP: metabolite CDP; for CDP / D-sedoheptulose-1/7-phosphate / GMP / Octoluse Bisphosphate / UDP / UMP / UTP / citrate/isocitrate / dGMP/AMP / fumarate / glucose-1/6-phosphate / glycerate / guanine / guanosine / inosine / pyruvate / sarcosine/alanine / succinate/methylmalonic acid / uridine / xanthosine: change in metabolite level after compound treatment; for D-sedoheptulose-1/7-phosphate: metabolite D-sedoheptulose-1/7-phosphate; for FAD: metabolite FAD; for GMP: metabolite GMP; for NAD+: metabolite NAD+; for NADP+: metabolite NADP+; for Octoluse Bisphosphate: metabolite Octoluse Bisphosphate; for Pyroglutamic acid: metabolite Pyroglutamic acid; for UDP-D-glucose: metabolite UDP-D-glucose; for UDP-D-glucuronate: metabolite UDP-D-glucuronate; for UDP-N-acetyl-glucosamine: metabolite UDP-N-acetyl-glucosamine; for UDP: metabolite UDP; for UMP: metabolite UMP; for UTP: metabolite UTP; for a-ketoglutarate: metabolite a-ketoglutarate; for citrate/isocitrate: metabolite citrate/isocitrate; for cytidine: metabolite cytidine; for dATP: metabolite dATP; for dGMP/AMP: metabolite dGMP/AMP; for fumarate: metabolite fumarate; for glucose-1/6-phosphate: metabolite glucose-1/6-phosphate; for glycerate: metabolite glycerate; for guanine: metabolite guanine; for guanosine: metabolite guanosine; for hypoxanthine: metabolite hypoxanthine; for indole: metabolite indole; for inosine: metabolite inosine; for 2_3-Diphosphoglyceric acid / 4-phosphopantothenate / 6-phospho-D-gluconate / FMN / IMP / Pyrophosphate / Sedoheptoluse bisphosphate / cyclic-AMP / glutathione disulfide / lactate / myo-inositol: metabolite level change after treatment; for nicotinate: metabolite nicotinate; for ornithine: metabolite ornithine; for phosphoenolpyruvate: metabolite phosphoenolpyruvate; for pyruvate: metabolite pyruvate; for ribose-phosphate: metabolite ribose-phosphate; for sarcosine/alanine: metabolite sarcosine/alanine; for sn-glycerol-3-phosphate: metabolite sn-glycerol-3-phosphate; for succinate/methylmalonic acid: metabolite succinate/methylmalonic acid; for uridine: metabolite uridine; for xanthosine: metabolite xanthosine
[2] = test system: P. falciparum; experiment: EC50 listed in S2 Table Metabolomics (used to set the concentration tested); format: cell-based; settings: Plasmodium falciparum; EC50 used for Factor_XEC50 in metabolomics; read-out: EC50_nM

Structure (SMILES): COc1ccc(C(C)=O)cc1N1C(=O)C2C(C1=O)C1(c3ccccc3)C(=O)C2(c2ccccc2)C(c2ccc(C)cc2)=C1c1ccc(C)cc1 (stereo not drawn) [MMV007695]
- Acetyllysine [1]: -0.2737
- N-acetyl-L-ornithine [1]: -0.4583
- N-carbamoyl-L-aspartate [1]: 0.3458
- NADPH [1]: 1.835
- dAMP [1]: 0.454
- dCMP [1]: -0.0001746
- dTDP [1]: 0.6225
- dTMP [1]: 0.1739
- dTTP [1]: 0.01162
- dihydroorotate [1]: -0.0741
- orotate [1]: 0.786
- DLH [1]: 0.4365
- DLS/SDL/SID [1]: 0.2312
- PD [1]: -1.42
- PEE [1]: 0.3408
- PVNF [1]: 0.2956
- 3-phosphoglycerate [1]: -0.5907
- ADP-D-glucose [1]: 0.2728
- ATP [1]: 0.4735
- CDP [1]: 0.708
- D-sedoheptulose-1/7-phosphate [1]: 1.674
- FAD [1]: 0.07228
- GMP [1]: -0.9101
- NAD+ [1]: 0.2072
- NADP+ [1]: 0.5403
- Octoluse Bisphosphate [1]: -1.5013
- Pyroglutamic acid [1]: 0.5983
- UDP-D-glucose [1]: 0.2909
- UDP-D-glucuronate [1]: 0.7314
- UDP-N-acetyl-glucosamine [1]: 0.05292
- UDP [1]: 0.6476
- UMP [1]: -1.868
- UTP [1]: 0.1535
- a-ketoglutarate [1]: 0.5943
- citrate/isocitrate [1]: 1.421
- cytidine [1]: 0.7161
- dATP [1]: 0.1897
- dGMP/AMP [1]: 0.2576
- fumarate [1]: -0.8988
- glucose-1/6-phosphate [1]: -0.6568
- glycerate [1]: -0.4271
- guanine [1]: 0.5906
- guanosine [1]: -0.9684
- hypoxanthine [1]: 0.7986
- indole [1]: 0.2572
- inosine [1]: -0.5212
- 2_3-Diphosphoglyceric acid [1]: -0.9184
- 4-phosphopantothenate [1]: -0.9898
- 6-phospho-D-gluconate [1]: -0.8607
- FMN [1]: -0.08531
- IMP [1]: -0.684
- Pyrophosphate [1]: -1.54
- Sedoheptoluse bisphosphate [1]: -1.405
- cyclic-AMP [1]: -0.504
- glutathione disulfide [1]: -0.8249
- lactate [1]: -1.404
- myo-inositol [1]: -3.565
- nicotinate [1]: 1.458
- ornithine [1]: -0.113
- phosphoenolpyruvate [1]: -0.01223
- pyruvate [1]: -0.001929
- ribose-phosphate [1]: -0.0001746
- sarcosine/alanine [1]: -1.812
- sn-glycerol-3-phosphate [1]: -1.169
- succinate/methylmalonic acid [1]: 0.009176
- uridine [1]: 0.3917
- xanthosine [1]: 0.304
- EC50 [2]: 179 nM

Structure (SMILES): CCCN(CCC)CC(O)COc1ccccc1C(=O)Nc1ccccc1 (stereo not drawn) [MMV006455]
- Acetyllysine [1]: -1.84
- N-acetyl-L-ornithine [1]: -1.412
- N-carbamoyl-L-aspartate [1]: -1.358
- NADPH [1]: 1.245
- dAMP [1]: 1.1553
- dCMP [1]: -0.6709
- dTDP [1]: 0.7128
- dTMP [1]: 1.286
- dTTP [1]: -0.4381
- dihydroorotate [1]: -1.042
- orotate [1]: -1.326
- DLH [1]: -3.333
- DLS/SDL/SID [1]: -1.242
- PD [1]: -1.741
- PEE [1]: -6.259
- PVNF [1]: -1.503
- 3-phosphoglycerate [1]: 0.4787
- ADP-D-glucose [1]: 0.3541
- ATP [1]: 0.3304
- CDP [1]: 0.5091
- D-sedoheptulose-1/7-phosphate [1]: 0.2206
- FAD [1]: 0.7675
- GMP [1]: -0.1404
- NAD+ [1]: 0.6496
- NADP+ [1]: 1.103
- Octoluse Bisphosphate [1]: 0.1196
- Pyroglutamic acid [1]: -0.5503
- UDP-D-glucose [1]: 0.16
- UDP-D-glucuronate [1]: -0.0808
- UDP-N-acetyl-glucosamine [1]: 0.351
- UDP [1]: 0.8505
- UMP [1]: -0.5223
- UTP [1]: -1.889
- a-ketoglutarate [1]: -0.6936
- citrate/isocitrate [1]: -1.1034
- cytidine [1]: 1.29
- dATP [1]: -1.015
- dGMP/AMP [1]: 0.4722
- fumarate [1]: -1.1903
- glucose-1/6-phosphate [1]: 2.348
- glycerate [1]: 0.5071
- guanine [1]: 0.09569
- guanosine [1]: -0.9351
- hypoxanthine [1]: 0.1926
- indole [1]: -0.2645
- inosine [1]: 0.3717
- 2_3-Diphosphoglyceric acid [1]: 0.5499
- 4-phosphopantothenate [1]: 0.373
- 6-phospho-D-gluconate [1]: 0.458
- FMN [1]: 0.8429
- IMP [1]: 0.8206
- Pyrophosphate [1]: -0.6263
- Sedoheptoluse bisphosphate [1]: 0.2316
- cyclic-AMP [1]: 0.1549
- glutathione disulfide [1]: 0.487
- lactate [1]: 1.338
- myo-inositol [1]: 3.347
- nicotinate [1]: 0.09812
- ornithine [1]: -0.2237
- phosphoenolpyruvate [1]: 0.01215
- pyruvate [1]: 0.467
- ribose-phosphate [1]: -0.04809
- sarcosine/alanine [1]: -0.7349
- sn-glycerol-3-phosphate [1]: -0.3619
- succinate/methylmalonic acid [1]: -0.7549
- uridine [1]: 0.2304
- xanthosine [1]: -2.143
- EC50 [2]: 196 nM

Structure (SMILES): Cc1ccc(-c2cc3nc4c(c(O)n3n2)CCCC4)cc1 [MMV006937]
- Acetyllysine [1]: 0.001543
- N-acetyl-L-ornithine [1]: -0.1685
- N-carbamoyl-L-aspartate [1]: 1.991
- NADPH [1]: -0.4265
- dAMP [1]: -0.0863
- dCMP [1]: -1.279
- dTDP [1]: -1.586
- dTMP [1]: -1.181
- dTTP [1]: -2.058
- dihydroorotate [1]: 2.759
- orotate [1]: -1.871
- DLH [1]: -0.331
- DLS/SDL/SID [1]: -0.7353
- PD [1]: 0.3712
- PEE [1]: -0.2807
- PVNF [1]: -1.612
- 3-phosphoglycerate [1]: -0.6487
- ADP-D-glucose [1]: -0.1406
- ATP [1]: -0.4135
- CDP [1]: -1.006
- D-sedoheptulose-1/7-phosphate [1]: 0.1087
- FAD [1]: 0.1332
- GMP [1]: -0.07362
- NAD+ [1]: 1.3162
- NADP+ [1]: -0.2641
- Octoluse Bisphosphate [1]: -0.3
- Pyroglutamic acid [1]: -0.3275
- UDP-D-glucose [1]: -0.04224
- UDP-D-glucuronate [1]: -0.6063
- UDP-N-acetyl-glucosamine [1]: -0.2962
- UDP [1]: -1.454
- UMP [1]: -1.3
- UTP [1]: -2.161
- a-ketoglutarate [1]: -0.5175
- citrate/isocitrate [1]: -0.9752
- cytidine [1]: 0.2747
- dATP [1]: 0.08499
- dGMP/AMP [1]: -0.2088
- fumarate [1]: 0.7624
- glucose-1/6-phosphate [1]: -0.09446
- glycerate [1]: 0.7002
- guanine [1]: 0.3064
- guanosine [1]: 0.2389
- hypoxanthine [1]: -0.05386
- indole [1]: -0.1272
- inosine [1]: -0.07571
- 2_3-Diphosphoglyceric acid [1]: -0.6436
- 4-phosphopantothenate [1]: -0.3901
- 6-phospho-D-gluconate [1]: -0.1214
- FMN [1]: -0.5746
- IMP [1]: 0.1416
- Pyrophosphate [1]: -0.6696
- Sedoheptoluse bisphosphate [1]: 0.01407
- cyclic-AMP [1]: -0.2332
- glutathione disulfide [1]: 0.02779
- lactate [1]: -0.3487
- myo-inositol [1]: 0.03438
- nicotinate [1]: -0.2273
- ornithine [1]: -0.08655
- phosphoenolpyruvate [1]: -0.5043
- pyruvate [1]: -0.2395
- ribose-phosphate [1]: 0.1461
- sarcosine/alanine [1]: 0.1551
- sn-glycerol-3-phosphate [1]: -0.1355
- succinate/methylmalonic acid [1]: -0.2134
- uridine [1]: -0.8059
- xanthosine [1]: -0.1801
- EC50 [2]: 396 nM
